The values below come from patent US3953464A, “Cyclic sulphoximides” (Warner-Lambert Company, priority 1973, dated 1976).

One data set is described as follows: analgesic activity. The format is in vivo. The note with it: dose not given.
Data set [1] is described as follows: LD50 (acute toxicity, i.g.). The note with it: in vivo, po, species not given.
The nature of data set [2]: antiphlogistic (anti-inflammatory) activity. The format is in vivo.
A further data set has as its system Shay Rat. The data set can be described thus: antisecretory activity (Shay Rat). It counts as in vivo. The note with it: i.g.
A further data set concerns Guinea pig cough. The data set can be described thus: Guinea pig cough (Antitussive). The format is in vivo. The note with it: Example 8 250 mg/kg equivalent to 150 mg/kg codeine.

Regarding `CCC(=O)N=C1N=S(=O)(c2ccccc2)c2ccccc21` (stereo not shown) [Example 6, 3-(Propionylimino)-1-phenyl-3H-1,2-benzisothiazole-1-oxide], the “Activity: analgesic (in words)” value in the data set “analgesic activity” is “analgesic”. Further, the LD50 (as a rule, the dose expected to kill half of the subjects tested) in data set [1] amounted to 1600 mg/kg. Besides, the “Activity: antiphlogistic / anti-inflammatory (in words)” value in data set [2] (dose not given) is “Antiphlogistic”.
With `CC(C)C(=O)N=C1N=S(=O)(c2ccccc2)c2ccccc21` (stereo not shown) [Example 7, 3-(Isobutyrylimino)-1-phenyl-3H-1,2-benzisothiazole-1-oxide], in the data set with Shay Rat, the “Activity: antisecretory (dose)” value stood at 100 mg/kg. Also, the LD50 in data set [1] was 600 mg/kg.
For the molecule `CS1(=O)=NC(=NC(=O)c2ccccc2O)c2ccccc21` (stereo not shown) [Example 8, 3-(Salicyloylimino)-1-methyl-3H-1,2-benzisothiazole-1-oxide], the LD50 in data set [1] was determined as 1600 mg/kg. Besides, the “Activity: Guinea pig cough (Antitussive), equivalent dose” value in the data set on Guinea pig cough turned out to be 250 mg/kg.
In data set [1], `CCOC(=O)N=C1N=S(=O)(c2ccccc2)c2ccccc21` (stereo not shown) [Example 12, 3-(Ethoxycarbonylimino)-1-phenyl-3H-1,2-benzisothiazole-1-oxide] returned an LD50 of 1600 mg/kg. The “Activity: antiphlogistic (dose)” value in data set [2] (dose at which antiphlogistic activity is stated, route and species not given) amounted to 250 mg/kg.
`COc1ccc2c3c1O[C@H]1[C@@H](O)C=C[C@H]4[C@@H](C2)N(C)CC[C@@]341` [codeine, reference compound]: the “Activity: Guinea pig cough (Antitussive), equivalent dose” value in the data set on Guinea pig cough is 150 mg/kg.
